Experimental data from patent US20100239563A1 (priority 2001, published 2010).

Key:
[1] = test system: influenza A virus A/WSN-HK (H3N1); assay type: cell-based
[2] = test system: influenza B virus strain Massachusetts/6/93

Row | SMILES | titer of infectious virus particles over infection sequences [1] | reduction of the number of newly formed infectious influenza B virus particles [2]
1 | N#CC(=C(N)Sc1ccccc1N)C(C#N)=C(N)Sc1ccccc1N [U0126, 1,4-diamino-2,3-dicyano-1,4-bis(2-aminophenylthio)butadiene] | significant reduction of the influenza virus particles | approx. 90%
2 | NC12CC3CC(CC(C3)C1)C2 [amantadine, 1-adamantanamine] | increased, in spite of the amantadine treatment | 
